pIC50: −log10 of the molar value.
What was measured:
[1] = test system: BJ; test: Cytotoxicity against human BJ cells; format: cell-based
[2] = Cytotoxicity against human WPE1-NA22 cells; format: cell-based
[3] = test system: MRC5; test: Cytotoxicity against human MRC5 cells; format: cell-based
[4] = test system: NCI-H322M; test: Antiproliferative activity against human NCI-H322M cells assessed as growth inhibition at 10 uM after 48 hrs by sulforhodamine B assay relative to control; format: functional; conditions: read-out: GI
[5] = test system: A549; test: Antiproliferative activity against human A549/ATCC cells assessed as growth inhibition at 10 uM after 48 hrs by sulforhodamine B assay relative to control; format: functional; conditions: A549, 48 h, read-out: GI
[6] = test system: HL-60(TB); test: Antiproliferative activity against human HL-60(TB) cells assessed as growth inhibition at 10 uM after 48 hrs by sulforhodamine B assay relative to control; format: functional; conditions: HL-60, 48 h, read-out: GI
[7] = test system: PC-3; test: Antiproliferative activity against human PC3 cells assessed as growth inhibition at 10 uM after 48 hrs by sulforhodamine B assay relative to control; format: functional; conditions: PC-3, 48 h, read-out: GI
[8] = test system: UO-31; test: Antiproliferative activity against human UO31 cells assessed as growth inhibition at 10 uM after 48 hrs by sulforhodamine B assay relative to control; format: functional; conditions: UO-31, 48 h, read-out: GI
[9] = test system: CAKI-1; test: Antiproliferative activity against human Caki1 cells assessed as growth inhibition at 10 uM after 48 hrs by sulforhodamine B assay relative to control; format: functional; conditions: CAKI-1, 48 h, read-out: GI
[10] = test system: MOLT-4; test: Antiproliferative activity against human MOLT4 cells assessed as growth inhibition at 10 uM after 48 hrs by sulforhodamine B assay relative to control; format: functional; conditions: MOLT-4, 48 h, read-out: GI
[11] = test system: NCI/ADR-RES; test: Antiproliferative activity against human NCI/ADR-RES cells assessed as growth inhibition at 10 uM after 48 hrs by sulforhodamine B assay relative to control; format: functional; conditions: read-out: GI
[12] = test system: NCI-H460; test: Antiproliferative activity against human NCI-H460 cells assessed as growth inhibition at 10 uM after 48 hrs by sulforhodamine B assay relative to control; format: functional; conditions: NCI-H460, 48 h, read-out: GI
[13] = test system: HCT-15; test: Antiproliferative activity against human HCT15 cells assessed as growth inhibition at 10 uM after 48 hrs by sulforhodamine B assay relative to control; format: functional; conditions: HCT-15, 48 h, read-out: GI
[14] = test system: MDA-MB-468; test: Antiproliferative activity against human MDA-MB-468 cells assessed as growth inhibition at 10 uM after 48 hrs by sulforhodamine B assay relative to control; format: functional; conditions: MDA-MB-468, 48 h, read-out: GI
[15] = test system: T47D; test: Antiproliferative activity against human T47D cells assessed as growth inhibition at 10 uM after 48 hrs by sulforhodamine B assay relative to control; format: functional; conditions: read-out: GI
[16] = test system: K562; test: Antiproliferative activity against human K562 cells assessed as growth inhibition at 10 uM after 48 hrs by sulforhodamine B assay relative to control; format: functional; conditions: K562, 48 h, read-out: GI
[17] = test system: SF-295; test: Antiproliferative activity against human SF295 cells assessed as growth inhibition at 10 uM after 48 hrs by sulforhodamine B assay relative to control; format: functional; conditions: SF-295, 48 h, read-out: GI
[18] = test system: LOX IMVI; test: Antiproliferative activity against human LOXIMVI cells assessed as growth inhibition at 10 uM after 48 hrs by sulforhodamine B assay relative to control; format: functional; conditions: read-out: GI
[19] = test system: ACHN; test: Antiproliferative activity against human ACHN cells assessed as growth inhibition at 10 uM after 48 hrs by sulforhodamine B assay relative to control; format: functional; conditions: read-out: GI
[20] = test system: SR; test: Antiproliferative activity against human SR cells assessed as growth inhibition at 10 uM after 48 hrs by sulforhodamine B assay relative to control; format: functional; conditions: read-out: GI
[21] = test system: NCI-H522; test: Antiproliferative activity against human NCI-H522 cells assessed as growth inhibition at 10 uM after 48 hrs by sulforhodamine B assay relative to control; format: functional; conditions: NCI-H522, 48 h, read-out: GI
[22] = test system: SK-MEL-5; test: Antiproliferative activity against human SK-MEL-5 cells assessed as growth inhibition at 10 uM after 48 hrs by sulforhodamine B assay relative to control; format: functional; conditions: SK-MEL-5, 48 h, read-out: GI
[23] = test system: OVCAR-4; test: Antiproliferative activity against human OVCAR4 cells assessed as growth inhibition at 10 uM after 48 hrs by sulforhodamine B assay relative to control; format: functional; conditions: OVCAR-4, 48 h, read-out: GI
[24] = test system: HCT-116; test: Antiproliferative activity against human HCT116 cells assessed as growth inhibition at 10 uM after 48 hrs by sulforhodamine B assay relative to control; format: functional; conditions: HCT-116, 48 h, read-out: GI
[25] = test system: MCF7; test: Antiproliferative activity against human MCF7 cells assessed as growth inhibition at 10 uM after 48 hrs by sulforhodamine B assay relative to control; format: functional; conditions: MCF7, 48 h, read-out: GI
[26] = test system: UACC-62; test: Antiproliferative activity against human UACC62 cells assessed as growth inhibition at 10 uM after 48 hrs by sulforhodamine B assay relative to control; format: functional; conditions: UACC-62, 48 h, read-out: GI
[27] = test system: A549; test: Cell cycle arrest in human A549 cells assessed as accumulation of cells at pre-G1 phase at 2 uM after […] by propidium iodide staining-based flow cytometric analysis (reference value: 0.92%); format: functional
[28] = test system: A549; test: Induction of apoptosis in human A549 cells assessed as early apoptotic cells at 2 uM after 24 hrs by Annexin V-FITC/propidium iodide staining-based flow cytometric analysis (reference value: 0.52%); format: functional
[29] = test system: A549; test: Cell cycle arrest in human A549 cells assessed as accumulation of cells at G2/M phase at 2 uM after 24 hrs by propidium iodide staining-based flow cytometric analysis (reference value: 6.2%); format: functional
[30] = test system: A549; test: Induction of apoptosis in human A549 cells assessed as necrotic cells at 2 uM after 24 hrs by Annexin V-FITC/propidium iodide staining-based flow cytometric analysis (reference value: 0.07%); format: functional
[31] = test system: A549; test: Cell cycle arrest in human A549 cells assessed as accumulation of cells at G0/G1 phase at 2 uM after 24 hrs by propidium iodide staining-based flow cytometric analysis (reference value: 67.62%); format: functional
[32] = test system: A549; test: Induction of apoptosis in human A549 cells assessed as late apoptotic cells at 2 uM after 24 hrs by Annexin V-FITC/propidium iodide staining-based flow cytometric analysis (reference value: 0.33%); format: functional
[33] = test system: A549; test: Cell cycle arrest in human A549 cells assessed as accumulation of cells at S phase at 2 uM after 24 hrs by propidium iodide staining-based flow cytometric analysis (reference value: 25.26%); format: functional
[34] = test system: A549; test: Induction of apoptosis in human A549 cells assessed as caspase3 expression at 7.4 uM after 2 hrs by ELISA (reference value: 53.45 ng/ml); format: functional
[35] = test system: A549; test: Induction of apoptosis in human A549 cells assessed as caspase9 expression at 7.4 uM after 2 hrs by ELISA (reference value: 0.1726 ng/ml); format: functional
[36] = test system: A549; test: Induction of apoptosis in human A549 cells assessed as viable cells at 2 uM after 24 hrs by Annexin V-FITC/propidium iodide staining-based flow cytometric analysis (reference value: 97.5%); format: functional; conditions: A549, 24 h, read-out: Activity
[37] = test system: A549; test: Induction of apoptosis in human A549 cells 24 hrs by propidium iodide staining-based flow cytometric analysis (reference value: 0.92%); format: functional
[38] = test system: PC-3; test: cells; conditions: Homo sapiens, PC-3, 24 h
Description: Cytotoxicity against human PC3 cells after 24 hrs by MTT assay

[39] = test system: HCT-116; test: cells; conditions: Homo sapiens, HCT-116, 24 h
Description: Cytotoxicity against human HCT116 cells after 24 hrs by MTT assay

[40] = test system: MCF7; test: Cytotoxicity against human MCF7 cells after 24 hrs by MTT assay; format: functional, cell-based; conditions: MCF7, 24 h
[41] = test system: HeLa; test: Cytotoxicity against human HeLa cells; format: functional, cell-based

| Structure (SMILES) | inhibition of growth at 10 µM [4] | inhibition of growth at 10 µM [5] | inhibition of growth at 10 µM [6] | inhibition of growth at 10 µM [7] | inhibition of growth at 10 µM [8] | inhibition of growth at 10 µM [9] | inhibition of growth at 10 µM [10] | inhibition of growth at 10 µM [11] | inhibition of growth at 10 µM [12] | inhibition of growth at 10 µM [13] | inhibition of growth at 10 µM [14] | inhibition of growth at 10 µM [15] | inhibition of growth at 10 µM [16] | inhibition of growth at 10 µM [17] | inhibition of growth at 10 µM [18] | inhibition of growth at 10 µM [19] | inhibition of growth at 10 µM [20] | inhibition of growth at 10 µM [21] | inhibition of growth at 10 µM [22] | inhibition of growth at 10 µM [23] | further results |
| --- | --- | --- | --- | --- | --- | --- | --- | --- | --- | --- | --- | --- | --- | --- | --- | --- | --- | --- | --- | --- | --- |
| COc1cccc2c1C(=O)c1c(O)c3c(c(O)c1C2=O)C[C@@](O)(C(=O)CO)C[C@@H]3O[C@H]1C[C@H](N)[C@H](O)[C@H](C)O1 [DOXORUBICIN] | – | – | – | – | – | – | – | – | – | – | – | – | – | – | – | – | – | – | – | – | pIC50 [1]: 4.75; pIC50 [2]: 4.74; pIC50 [3]: 4.83 |
| CCOC(=O)C1=C(CN(C2CCCCC2)C2CCCCC2)N(C)C(=O)NC1c1ccccc1 (centres undefined) | 5% | 33% | 37% | 58% | 27% | 30% | 35% | 7% | 13% | 11% | 21% | 46% | 31% | 19% | 13% | 13% | 20% | 18% | 19% | 26% | inhibition of growth at 10 µM [24]: 33%; inhibition of growth at 10 µM [25]: 36%; inhibition of growth at 10 µM [26]: 23% |
| O=c1[nH]cc(F)c(=O)[nH]1 [FLUOROURACIL] | – | – | – | – | – | – | – | – | – | – | – | – | – | – | – | – | – | – | – | – | Activity [27]: 15.52%; Activity [28]: 6.37%; Activity [29]: 21.04%; Activity [30]: 2.52%; Activity [31]: 47.36%; Activity [32]: 6.59%; Activity [33]: 16.08%; Activity [34]: 582.1 ng/mL; Activity [35]: 16.84 ng/mL; viability at 2 µM [36]: 82.7%; Activity [37]: 15.52% |
| CCOC(=O)C1=C(CSC(=S)N2CCN(c3ccccc3)CC2)N(C)C(=O)NC1c1ccccc1 (centres undefined) | 15% | 27% | 20% | 41% | 37% | 15% | 24% | 5% | 12% | 48% | 14% | 37% | 22% | 17% | 13% | 11% | 44% | 28% | 23% | 15% | inhibition of growth at 10 µM [24]: 41%; inhibition of growth at 10 µM [25]: 15%; inhibition of growth at 10 µM [26]: 24% |
| CCOC(=O)C1=C(CSC(=S)N2CCN(c3ccccc3OCC)CC2)N(C)C(=O)NC1c1ccccc1 (centres undefined) | – | – | – | – | – | – | – | – | – | – | – | – | – | – | – | – | – | – | – | – | pIC50 [38]: 4.14; pIC50 [39]: 4.17; pIC50 [40]: 4.27 |
| CNC(=O)c1cc(Oc2ccc(NC(=O)Nc3ccc(Cl)c(C(F)(F)F)c3)cc2)ccn1 [SORAFENIB] | – | – | – | – | – | – | – | – | – | – | – | – | – | – | – | – | – | – | – | – | pIC50 [41]: 6.19 |

Source: ChEMBL document CHEMBL4270553, “Synthesis and anticancer activity of new dihydropyrimidinone derivatives” (Eur J Med Chem, 2018)
